Data as given in patent US20040018941A1, “Fused-benzene derivatives of thiouracil, herbicidal and desiccant compositions contaning them” (ISHIHARA SANGYO KAISHA, LTD., priority 2002, published 2004).

Key:
Assay type in all cases: in vivo
Conditions in all cases: rating 0-100 (0 no damage, 100 complete death), 14 days after application
[1] = test system: common ragweed (Ambrosia artemisiifolia L., AMBEL); experiment: Pre-emerge herbicidal activity, greenhouse screen, AMBEL
Description: (§1) A standard greenhouse herbicide activity screening system was used to evaluate the herbicidal efficacy and crop safety of these test compounds. Seven broadleaf weed species including redroot pigweed (Amaranthus retroflexus, AMARE), velvetleaf (Abutilon theophrasti, ABUTH), sicklepod (Cassia obtusifolia, CASOB), ivyleaf morningglory (Ipomoea hederacea, IPOHE), lambsquarters (Chenopodium album, CHEAL), common ragweed (Ambrosia artemisiifolia L., AMBEL), and cocklebur (Xanthium strumarium, XANST) were used as test species. Four grass weed species including green foxtail (Setaria viridis, SETVI), barnyardgrass (Echinochloa crus-galli, ECHCG), johnsongrass (Sorghum halepense, SORHA), and large crabgrass (Digitaria sanguinalis, DIGSA) were also used. In addition, three crop species, field corn (Zea mays L., var. Dekalb 527, CORN), soybean (Glycine max L., var. Pella 86, SOY), and upland rice (Oryza sp., var. Tebonnet, RICE) were included.
(§2) All plants were grown in 10 cm square plastic pots which were filled with a sandy loam soil mix. For pre-emerge tests, seeds were planted one day prior to application of the test compounds. For post-emerge tests, seeds were planted 8-21 days prior to the test to allow emergence and good foliage development prior to application of the test substances. At the time of the post-emerge application, plants of all species were usually at the 2-3 leaf stage of development.
(§3) All test compounds were dissolved in acetone and applied to the test units in a volume of 187 l/ha. Test materials were applied at rates ranging from 15 g ai/ha to 1000 g ai/ha using a track sprayer equipped with a TJ8001 E even flow flat fan spray nozzle. Plants were arranged on a shelf so that the top of the canopy (post-emerge) or top of the soil surface (pre-emerge) was 40-45 cm below the nozzle. Pressurized air was used to force the test solution through the nozzle as it was mechanically advanced over the top of all test plants/pots. This application simulates a typical commercial field herbicide application.
(§4) In the post-emerge test, a commercial non-ionic surfactant was also included (0.25% v/v) to enhance wetting of the leaf surfaces of target plants. Immediately after application, test units of the pre-emerge applications were watered at the soil surface to incorporate the test materials.
(§5) At 14 days after application of the test materials, phytotoxicity ratings were recorded. A rating scale of 0-100 was used as previously described in Research Methods in Weed Science, 2nd edition, B. Truelove, Ed., Southern Weed Science Society, Auburn University, Auburn, Ala., 1977. Briefly, “0” corresponds to no damage and “100” corresponds to complete death of all plants in the test unit. This scale was used both to determine efficacy against weed species and damage to crop species. Herbicide activity data for various compounds of this invention, which are shown by compound No. in Tables 1-7, are shown in Tables 8 and 9.

[2] = test system: redroot pigweed (Amaranthus retroflexus, AMARE); experiment: Post-emerge herbicidal activity, greenhouse screen, AMARE
Description: as §1, §2, §3, §4, §5

[3] = test system: johnsongrass (Sorghum halepense, SORHA); experiment: Pre-emerge herbicidal activity, greenhouse screen, SORHA
Description: as §1, §2, §3, §4, §5

[4] = test system: sicklepod (Cassia obtusifolia, CASOB); experiment: Pre-emerge herbicidal activity, greenhouse screen, CASOB
Description: as §1, §2, §3, §4, §5

[5] = test system: lambsquarters (Chenopodium album, CHEAL); experiment: Post-emerge herbicidal activity, greenhouse screen, CHEAL
Description: as §1, §2, §3, §4, §5

[6] = test system: large crabgrass (Digitaria sanguinalis, DIGSA); experiment: Pre-emerge herbicidal activity, greenhouse screen, DIGSA
Description: as §1, §2, §3, §4, §5

[7] = test system: green foxtail (Setaria viridis, SETVI); experiment: Pre-emerge herbicidal activity, greenhouse screen, SETVI
Description: as §1, §2, §3, §4, §5

[8] = test system: upland rice (Oryza sp., var. Tebonnet, RICE); experiment: Post-emerge crop damage, greenhouse screen, RICE
Description: as §1, §2, §3, §4, §5

[9] = test system: green foxtail (Setaria viridis, SETVI); experiment: Post-emerge herbicidal activity, greenhouse screen, SETVI
Description: as §1, §2, §3, §4, §5

[10] = test system: sicklepod (Cassia obtusifolia, CASOB); experiment: Post-emerge herbicidal activity, greenhouse screen, CASOB
Description: as §1, §2, §3, §4, §5

[11] = test system: soybean (Glycine max L., var. Pella 86, SOY); experiment: Post-emerge crop damage, greenhouse screen, SOY
Description: as §1, §2, §3, §4, §5

[12] = test system: velvetleaf (Abutilon theophrasti, ABUTH); experiment: Post-emerge herbicidal activity, greenhouse screen, ABUTH
Description: as §1, §2, §3, §4, §5

[13] = test system: redroot pigweed (Amaranthus retroflexus, AMARE); experiment: Pre-emerge herbicidal activity, greenhouse screen, AMARE
Description: as §1, §2, §3, §4, §5

[14] = test system: johnsongrass (Sorghum halepense, SORHA); experiment: Post-emerge herbicidal activity, greenhouse screen, SORHA
Description: as §1, §2, §3, §4, §5

[15] = test system: ivyleaf morningglory (Ipomoea hederacea, IPOHE); experiment: Post-emerge herbicidal activity, greenhouse screen, IPOHE
Description: as §1, §2, §3, §4, §5

[16] = test system: barnyardgrass (Echinochloa crus-galli, ECHCG); experiment: Post-emerge herbicidal activity, greenhouse screen, ECHCG
Description: as §1, §2, §3, §4, §5

[17] = test system: large crabgrass (Digitaria sanguinalis, DIGSA); experiment: Post-emerge herbicidal activity, greenhouse screen, DIGSA
Description: as §1, §2, §3, §4, §5

[18] = test system: field corn (Zea mays L., var. Dekalb 527, CORN); experiment: Post-emerge crop damage, greenhouse screen, CORN
Description: as §1, §2, §3, §4, §5

[19] = test system: lambsquarters (Chenopodium album, CHEAL); experiment: Pre-emerge herbicidal activity, greenhouse screen, CHEAL
Description: as §1, §2, §3, §4, §5

[20] = test system: field corn (Zea mays L., var. Dekalb 527, CORN); experiment: Pre-emerge crop damage, greenhouse screen, CORN
Description: as §1, §2, §3, §4, §5

[21] = test system: barnyardgrass (Echinochloa crus-galli, ECHCG); experiment: Pre-emerge herbicidal activity, greenhouse screen, ECHCG
Description: as §1, §2, §3, §4, §5

[22] = test system: upland rice (Oryza sp., var. Tebonnet, RICE); experiment: Pre-emerge crop damage, greenhouse screen, RICE
Description: as §1, §2, §3, §4, §5

[23] = test system: common ragweed (Ambrosia artemisiifolia L., AMBEL); experiment: Post-emerge herbicidal activity, greenhouse screen, AMBEL
Description: as §1, §2, §3, §4, §5

[24] = test system: soybean (Glycine max L., var. Pella 86, SOY); experiment: Pre-emerge crop damage, greenhouse screen, SOY
Description: as §1, §2, §3, §4, §5

[25] = test system: ivyleaf morningglory (Ipomoea hederacea, IPOHE); experiment: Pre-emerge herbicidal activity, greenhouse screen, IPOHE
Description: as §1, §2, §3, §4, §5

[26] = test system: velvetleaf (Abutilon theophrasti, ABUTH); experiment: Pre-emerge herbicidal activity, greenhouse screen, ABUTH
Description: as §1, §2, §3, §4, §5

Cn1c(C(F)(F)F)cc(=O)n(-c2c(F)ccc3nc(C(C)(C)C)oc23)c1=S [Compound 1-5]
Pre-emerge Herbicidal Activity AMBEL ([1]; 63 g ai/ha): 99
Pre-emerge Herbicidal Activity AMBEL ([1]; 250 g ai/ha): 100
Post-emerge Herbicidal Activity AMARE ([2]; 63 g ai/ha): 99
Post-emerge Herbicidal Activity AMARE ([2]; 250 g ai/ha): 100
Pre-emerge Herbicidal Activity SORHA ([3]; 63 g ai/ha): 99
Pre-emerge Herbicidal Activity SORHA ([3]; 250 g ai/ha): 100
Pre-emerge Herbicidal Activity CASOB ([4]; 63 g ai/ha): 90
Pre-emerge Herbicidal Activity CASOB ([4]; 250 g ai/ha): 100
Post-emerge Herbicidal Activity CHEAL ([5]; 63 g ai/ha): 95
Post-emerge Herbicidal Activity CHEAL ([5]; 250 g ai/ha): 100
Pre-emerge Herbicidal Activity DIGSA ([6]; 63 g ai/ha): 100
Pre-emerge Herbicidal Activity DIGSA ([6]; 250 g ai/ha): 100
Pre-emerge Herbicidal Activity SETVI ([7]; 63 g ai/ha): 100
Pre-emerge Herbicidal Activity SETVI ([7]; 250 g ai/ha): 100
Post-emerge Herbicidal Activity RICE (crop damage) ([8]; 63 g ai/ha): 65
Post-emerge Herbicidal Activity RICE (crop damage) ([8]; 250 g ai/ha): 70
Post-emerge Herbicidal Activity SETVI ([9]; 63 g ai/ha): 80
Post-emerge Herbicidal Activity SETVI ([9]; 250 g ai/ha): 85
Post-emerge Herbicidal Activity CASOB ([10]; 63 g ai/ha): 60
Post-emerge Herbicidal Activity CASOB ([10]; 250 g ai/ha): 90
Post-emerge Herbicidal Activity SOY (crop damage) ([11]; 63 g ai/ha): 50
Post-emerge Herbicidal Activity SOY (crop damage) ([11]; 250 g ai/ha): 75
Post-emerge Herbicidal Activity ABUTH ([12]; 63 g ai/ha): 100
Post-emerge Herbicidal Activity ABUTH ([12]; 250 g ai/ha): 100
Pre-emerge Herbicidal Activity AMARE ([13]; 63 g ai/ha): 100
Pre-emerge Herbicidal Activity AMARE ([13]; 250 g ai/ha): 100
Post-emerge Herbicidal Activity SORHA ([14]; 63 g ai/ha): 55
Post-emerge Herbicidal Activity SORHA ([14]; 250 g ai/ha): 75
Post-emerge Herbicidal Activity IPOHE ([15]; 63 g ai/ha): 100
Post-emerge Herbicidal Activity IPOHE ([15]; 250 g ai/ha): 100
Post-emerge Herbicidal Activity ECHCG ([16]; 63 g ai/ha): 100
Post-emerge Herbicidal Activity ECHCG ([16]; 250 g ai/ha): 100
Post-emerge Herbicidal Activity DIGSA ([17]; 63 g ai/ha): 60
Post-emerge Herbicidal Activity DIGSA ([17]; 250 g ai/ha): 75
Post-emerge Herbicidal Activity CORN (crop damage) ([18]; 63 g ai/ha): 15
Post-emerge Herbicidal Activity CORN (crop damage) ([18]; 250 g ai/ha): 30
Pre-emerge Herbicidal Activity CHEAL ([19]; 63 g ai/ha): 100
Pre-emerge Herbicidal Activity CHEAL ([19]; 250 g ai/ha): 100
Pre-emerge Herbicidal Activity CORN (crop damage) ([20]; 63 g ai/ha): 85
Pre-emerge Herbicidal Activity CORN (crop damage) ([20]; 250 g ai/ha): 100
Pre-emerge Herbicidal Activity ECHCG ([21]; 63 g ai/ha): 100
Pre-emerge Herbicidal Activity ECHCG ([21]; 250 g ai/ha): 100
Pre-emerge Herbicidal Activity RICE (crop damage) ([22]; 63 g ai/ha): 55
Pre-emerge Herbicidal Activity RICE (crop damage) ([22]; 250 g ai/ha): 80
Post-emerge Herbicidal Activity AMBEL ([23]; 63 g ai/ha): 90
Post-emerge Herbicidal Activity AMBEL ([23]; 250 g ai/ha): 100
Pre-emerge Herbicidal Activity SOY (crop damage) ([24]; 63 g ai/ha): 0
Pre-emerge Herbicidal Activity SOY (crop damage) ([24]; 250 g ai/ha): 99
Pre-emerge Herbicidal Activity IPOHE ([25]; 63 g ai/ha): 100
Pre-emerge Herbicidal Activity IPOHE ([25]; 250 g ai/ha): 100
Pre-emerge Herbicidal Activity ABUTH ([26]; 63 g ai/ha): 100
Pre-emerge Herbicidal Activity ABUTH ([26]; 250 g ai/ha): 100
